Data: article PMC4912613, “A broad analysis of resistance development in the malaria parasite” (Nature Communications, 2016)
Like-named read-outs stand apart in the source and are kept apart here.

How the values were obtained:
PfCRT-Q352R (parent Dd2) = experiment: Cross-resistance EC50 assay, PfCRT-Q352R; type: cell-based; conditions: Plasmodium falciparum, DD2, 72 h, read-out: PfCRT:Q352R (Dd2 Parent) Average EC50
From the text: (§1) To evaluate potential overlapping activity against known antimalarial drug targets, we performed dose-response studies with each compound against our assembled set of drug-resistant lines and their corresponding parents, in an asexual blood stage proliferation assay (Table 1). Comparisons were made to the drug-sensitive strain 3D7 when a parent was unavailable (TM90C2A, W2 and Dd2). As laboratories conducted EC50 assays with different strains and protocols, all comparisons were made between assays from the same laboratory and under the same assay conditions. Compounds displaying >5-fold EC50 shifts relative to the parent or sensitive strain were flagged as having potentially non-novel targets. Average fold shifts per strain ranged from 0.82 to 2.34, with a median of 1.23 indicating there was not common resistance to any one resistant clone. No resistance patterns were observed when classifying the compounds based on chemical structure, but this was not surprising given the diversity of compounds chosen. On the other hand, given that these confirmed compounds were derived from larger unconfirmed hit lists to which some filtration criteria may have been applied (for example, elimination of obvious dihydrofolate reductase inhibitors[32]), some[10][11][12][13] pre-existing bias may exist in the set. […]
(§2) Alternatively, a SYBR Green-based proliferation approach was used for the 72-h assay, as previously described. Briefly, a culture of either synchronized or asynchronous parasitized RBCs (0.3% parasitemia and 4% haematocrit) in screening medium (identical to supplemented medium above except no serum was added) was exposed to serial drug dilutions. Plates were incubated at 37 °C and gassed with 93% N2, 4% CO2 and 3% O2 for 72 h. Following incubation, 10 × SYBR Green I (Invitrogen; supplied in 10,000 × concentration) in lysis buffer ([…], 5 mM EDTA, 0.16% Saponin wt per vol and 1.6% Triton X vol per vol) was added to the wells and the plates were incubated overnight at room temperature before plate reading. EC50 assays were repeated three times, taking the average EC50 value from each assay set, and removing any outliers using a single iteration of Grubbs' test, eliminating values with z-scores above the critical z-value (α=0.05). The raw EC50 values for synchronized parasites assayed in a 384-well format are listed in Supplementary Data 4. The raw EC50 values for asynchronous parasites assayed in a 96 or 1536-well format are listed in Supplementary Data 5.
(§3) EC50 values for each strain were compared with those of the corresponding parent strain to determine fold-shift changes and identify resistance. To minimize the cause variance between assays, all comparisons were conducted between strains assayed under identical conditions. A one-way ANOVA followed by a Dunnet's post-test was conducted in GraphPad Prism to identify significant changes between the parent and resistant strain.

[1] = tested on: TM90C2A (DHFR, folate pathway; compared with 3D7); experiment: Cross-resistance EC50 assay, TM90C2A; type: cell-based; conditions: Plasmodium falciparum, 48 h, read-out: TM90C2A (3D7 Parent) Average EC50
From the text: (§4) To evaluate potential overlapping activity against known antimalarial drug targets, we performed dose-response studies with each compound against our assembled set of drug-resistant lines and their corresponding parents, in an asexual blood stage proliferation assay (Table 1). Comparisons were made to the drug-sensitive strain 3D7 when a parent was unavailable (TM90C2A, W2 and Dd2). As laboratories conducted EC50 assays with different strains and protocols, all comparisons were made between assays from the same laboratory and under the same assay conditions. Compounds displaying >5-fold EC50 shifts relative to the parent or sensitive strain were flagged as having potentially non-novel targets. Average fold shifts per strain ranged from 0.82 to 2.34, with a median of 1.23 indicating there was not common resistance to any one resistant clone. No resistance patterns were observed when classifying the compounds based on chemical structure, but this was not surprising given the diversity of compounds chosen. On the other hand, given that these confirmed compounds were derived from larger unconfirmed hit lists to which some filtration criteria may have been applied (for example, elimination of obvious dihydrofolate reductase inhibitors[32]), some[10][11][12][13] pre-existing bias may exist in the set.
(§5) The 48-h assay was carried out in a 96-well format following standard methods using the ^3H-hypoxanthine incorporation assay. The raw EC50 values corresponding to this assay can be found in Supplementary Data 3. Briefly, this assay relies on the parasite incorporation of labelled hypoxanthine that is proportional to P. falciparum growth. A culture of parasitized RBCs (0.5% parasitemia with a percentage of ring stage higher than 70% of total parasitemia, 2.0% haematocrit) in RPMI-1640, […] and 5 μM hypoxanthine was exposed to drug serial dilutions. Plates were incubated for 24 h at 37 °C, 5% CO2, 5% O2 and 90% N2. After 24 h of incubation, ^3H-hypoxanthine was added and plates were incubated for an additional 24-h period. After that, parasites were harvested on a glass fibre filter using a TOMTEC Cell Harvester 96. Filters were dried and melt-on scintillator sheets were used to determine the incorporation of ^3H-hypoxanthine. Radioactivity was measured using a microbeta counter. Data were normalized using the incorporation of the positive (parasitized RBCs without drug) and negative (same culture with artesunate at 2 μM) controls. All assays were conducted in triplicate using three independently grown cultures, and EC50 values were determined using the XLfit add-in module for Excel (version 2.3.1) from Grafit (version 5.3.1.3), where parameter h is the assay hill slope, x is the compound concentration and y is the inhibition of growth effect. The XLfit equation is: […]
as §3

P. falciparum strain 3D7 = experiment: Asexual blood stage 3H-hypoxanthine incorporation assay, 3D7; type: cell-based, Plasmodium falciparum; conditions: P. falciparum 3D7, read-out: 3D7 EC50
Description: as §5

hsp90 (D88Y, parent Dd2) = experiment: Cross-resistance EC50 assay, hsp90; type: cell-based; conditions: Plasmodium falciparum; SYBR green 72 hour assay; synchronized parasites; 384-well format; strain HSP90 (Dd2 parent)
From the text: as §1, §2, §3

[2] = tested on: NITD609-R2 (PfATP4 T418N and P990R, parent Dd2); experiment: Cross-resistance EC50 assay, NITD609-R2; type: cell-based; conditions: Plasmodium falciparum, SYBR green 72 hour assay, asynchronized parasites, 96-well or 1536-well format
From the text: as §1, §2, §3

W2 = experiment: Cross-resistance EC50 assay, W2 parent; type: cell-based, Plasmodium falciparum; conditions: Plasmodium falciparum, 48 h, read-out: W2F6 (PARENT) Average EC50
From the text: Multidrug resistance alleles, including mutations in P. falciparum chloroquine resistance transporter (pfcrt) and P. falciparum multi-drug resistance transporter 1 (pfmdr1) are very common in field isolates. Therefore, we sought to assess the degree to which pre-existing resistance alleles would contribute to a loss of potency for this diverse collection of small molecule compounds. Fifteen clones derived from three main parent lines were chosen to maximize diversity in mutated pathways and genetic backgrounds, thus representing the variety of resistance seen in the field: 3D7 (ref. [23]), W2 (ref. [24]) or Dd2 (ref. [25]). The 3D7 line originates from the clone of a Netherlands clinical isolate strain[23][26] and is generally considered to be drug sensitive, though it does convey resistance to sulfadoxine. Conversely, W2 (ref. [24], [27]) and Dd2 (ref. [25]) are multi-drug-resistant lines originating from the Indochina III/CDC isolate, which contain point mutations in pfcrt as well as amplifications in pfmdr1 and GTP cyclohydrolase.
as §4, §5
Alternatively, a SYBR Green-based proliferation approach was used for the 72-h assay, as previously described. […]

[3] = Plasmodium falciparum, 3D7, asexual stage

Structure (SMILES) | EC50 (PfCRT-Q352R (parent Dd2)) [nM] | EC50 [1] [nM] | EC50 (P. falciparum strain 3D7; [3]) [nM] | EC50 (hsp90 (D88Y, parent Dd2)) [nM] | EC50 [2] [µM] | EC50 (W2) [nM] | EC50 (P. falciparum strain 3D7; asexual stage) [nM]
CCN(CC)S(=O)(=O)c1ccc(-c2csc(Nc3ccc(C)c(C)c3)n2)cc1 [MMV009108] | 404 | 445 | 930 | 512 | 0.574 | 378 | –
COCCNCC(O)Cn1c2ccc(Cl)cc2c2cc(Cl)ccc21 (stereo not shown) [MMV019017] | 582 | 868 | 480 | 614 | 0.456 | 138 | –
Cc1cc(Nc2ccc(OCc3ccccc3)cc2)nc2cc(O)ccc12 [MMV007181] | 133 | 278 | 346 | 120 | 0.128 | 34 | –
CNCc1ccc2nc(-c3coc(Cc4cc(Cl)ccc4OCC(C)C)n3)[nH]c2c1.Cl.Cl [MMV026596] | 451 | 267 | 346 | 373 | 0.206 | 645 | –
COc1ccccc1CNC(=O)CCn1c(=O)[nH]c2ccsc2c1=O [MMV019066] | 63 | 1620 | 1670 | 15 | 0.014 | 1270 | 1670
Cc1ccc(Cn2c(N3CCC(C(=O)NCc4cccs4)CC3)nc3ccccc32)cc1 [MMV007564] | 430 | 655 | 580 | 710 | 0.705 | 503 | –
COc1cc(-c2nc(-c3ccccc3)c(-c3ccccc3)[nH]2)ccc1OCCN(C)C [MMV027496] | 211 | 300 | 111 | 312 | 0.755 | 272 | –
O=C(Nc1ccccc1O)c1ccc(Oc2cccc(C(=O)Nc3ccccc3O)c2)cc1 [MMV665888] | 683 | 1040 | 1210 | 843 | 0.812 | 515 | –
CCCOCc1cc(CN2CCN(c3cccc(Cl)c3)CC2)c(O)c2ncccc12 [MMV000787] | 699 | 1040 | 942 | 476 | 1.25 | 792 | –
Cc1nc2ccc3ccc(CNc4ccc(C(=O)CC(CCC(=O)O)C(=O)O)cc4)cc3c2c(=O)[nH]1.Cl (stereo not shown) [MMV027634] | 38 | 64 | 23 | 39 | 0.14 | 62 | –
c1cncc(-c2cc(N3CCC(CN4CCOCC4)CC3)nc(-c3ccncc3)n2)c1 [MMV668399] | 70 | 86 | 83 | 90 | 0.652 | 164 | –
